Source: patent publication US7138361B2, “Herbicidal heterocycles” (E. I. du Pont de Nemours and Company, priority 2000, dated 2006)

Assays:
Assay type in all cases: in vivo
[1] = test system: crabgrass (Digitaria sanguinalis); assay: Test B postemergence; conditions: Rate 125 g/ha, scale 0 to 100, 0 no effect, 100 complete control
Procedure, shortened: (§1)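 Seeds were planted and sprayed preemergence with test chemical in a non-phytotoxic solvent mixture containing surfactant; postemergence plants (2 to 18 cm, 1- to 4-leaf stage) received the same formulation. Greenhouse hold 13 to 15 days, then visual rating versus untreated controls on a 0–100 scale (0 no effect, 100 complete control).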

[2] = test system: cocklebur (Xanthium strumarium); assay: Test B postemergence
Procedure, shortened: as §1

[3] = test system: wheat (Triticum aestivum); assay: Test B postemergence; conditions: Rate 125 g/ha, scale 0 to 100, 0 no effect, 100 complete control
Procedure, shortened: as §1

[4] = test system: blackgrass (Alopecurus myosuroides); assay: Test B postemergence
Procedure, shortened: as §1

[5] = test system: pigweed (Amaranthus retroflexus); assay: Test B postemergence; conditions: Rate 125 g/ha, scale 0 to 100, 0 no effect, 100 complete control
Procedure, shortened: as §1

[6] = test system: barnyardgrass (Echinochloa crus-galli); assay: Test B postemergence
Procedure, shortened: as §1

[7] = test system: Surinam grass (Brachiaria decumbens); assay: Test B postemergence
Procedure, shortened: as §1

[8] = test system: giant foxtail (Setaria faberii); assay: Test B postemergence; conditions: Rate 125 g/ha, scale 0 to 100, 0 no effect, 100 complete control
Procedure, shortened: as §1

[9] = test system: lambsquarters (Chenopodium album); assay: Test B postemergence; conditions: Rate 125 g/ha, scale 0 to 100, 0 no effect, 100 complete control
Procedure, shortened: as §1

[10] = test system: wild oat (Avena fatua); assay: Test B postemergence; conditions: Rate 125 g/ha, scale 0 to 100, 0 no effect, 100 complete control
Procedure, shortened: as §1

[11] = test system: morning glory (Ipomoea hederacea); assay: Test B postemergence; conditions: Rate 125 g/ha, scale 0 to 100, 0 no effect, 100 complete control
Procedure, shortened: as §1

[12] = test system: velvetleaf (Abutilon theophrasti); assay: Test B postemergence; conditions: Rate 125 g/ha, scale 0 to 100, 0 no effect, 100 complete control
Procedure, shortened: as §1

[13] = test system: corn (Zea mays); assay: Test B postemergence
Procedure, shortened: as §1

[14] = test system: lambsquarters (Chenopodium album); assay: Test C preemergence; conditions: for Plant response rating (0 to 100), Lambsquarters: Rate 500 g/ha, visual evaluation after 12 to 14 days
Procedure, shortened: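 Compounds in non-phytotoxic solvent with surfactant applied preemergence to planted seeds and postemergence to plants at 1- to 4-leaf stage (2–18 cm). Kept in greenhouse 12–14 days, then visually rated against controls on a 0 (no effect) to 100 (complete control) scale.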

[15] = test system: crabgrass (Digitaria sanguinalis); assay: Test B preemergence
Procedure, shortened: as §1

[16] = test system: cocklebur (Xanthium strumarium); assay: Test B preemergence
Procedure, shortened: as §1

[17] = test system: pigweed (Amaranthus retroflexus); assay: Test B preemergence
Procedure, shortened: as §1

[18] = test system: barnyardgrass (Echinochloa crus-galli); assay: Test B preemergence
Procedure, shortened: as §1

[19] = test system: Surinam grass (Brachiaria decumbens); assay: Test B preemergence
Procedure, shortened: as §1

[20] = test system: giant foxtail (Setaria faberii); assay: Test B preemergence
Procedure, shortened: as §1

[21] = test system: lambsquarters (Chenopodium album); assay: Test B preemergence
Procedure, shortened: as §1

[22] = test system: morning glory (Ipomoea hederacea); assay: Test B preemergence
Procedure, shortened: as §1

[23] = test system: rice (Oryza saliva); assay: Test B preemergence
Procedure, shortened: as §1

[24] = test system: velvetleaf (Abutilon theophrasti); assay: Test B preemergence
Procedure, shortened: as §1

[25] = test system: corn (Zea mays); assay: Test B preemergence
Procedure, shortened: as §1

[26] = Rate 125 g/ha, scale 0 to 100, 0 no effect, 100 complete control
[27] = Rate 500 g/ha, scale 0 to 100, 0 is no effect, 100 is complete control, 13 to 15 days
[28] = preemergence, Rate 62 g/ha, scale 0 to 100
[29] = preemergence, Rate 250 g/ha, scale 0 to 100, 0 no effect, 100 complete control
[30] = Preemergence, Rate 500 g/ha, scale 0 to 100, 0 no effect, 100 complete control
[31] = preemergence, Rate 125 g/ha, scale of 0 to 100 where 0 is no effect and 100 is complete control, 13 to 15 days

For `CCC(C)c1ccn(C2OCN(c3cccc(OC(F)F)c3)C2=O)n1` (centres unmarked) [Compound 134], the “Plant response rating, Crabgrass” value [1] was 20, the “Plant response rating, Cocklebur” value [2, 26] was 30 and the “Plant response rating, Cocklebur” value [2, 27] was 30. For the same compound, the “Plant response rating, Wheat” value [3] was 0, the “Plant response rating, Blackgrass” value [4, 26] was 0 and the “Plant response rating, Blackgrass” value [4, 27] was 0. The “Plant response rating, Pigweed” value [5] was 60, the “Plant response rating, Barnyardgrass” value [6, 26] was 90 and the “Plant response rating, Barnyardgrass” value [6, 27] was 100. For the same compound, the “Plant response rating, Surinam grass” value [7, 26] was 20, the “Plant response rating, Surinam grass” value [7, 27] was 60 and the “Plant response rating, Foxtail, Giant” value [8] was 30. For the same compound, the “Plant response rating, Lambsquarters” value [9] was 100, the “Plant response rating, Wild Oat” value [10] was 0 and the “Plant response rating, Morningglory” value [11] was 10. The “Plant response rating, Velvetleaf” value [12] was 0, the “Plant response rating, Corn” value [13, 26] was 0 and the “Plant response rating, Corn” value [13, 27] was 20. For the same compound, the “Plant response rating, Lambsquarters” value [14, 26] was 100, the “Plant response rating, Lambsquarters” value [14, 28] was 100 and the “Plant response rating (0 to 100), Lambsquarters” value ([14]; preemergence) was 100. For the same compound, the “Plant response rating, Lambsquarters” value [14, 29] was 100, the “Plant response rating, Crabgrass” value [15, 30] was 100 and the “Plant response rating, Crabgrass” value [15, 31] was 100. The “Plant response rating, Cocklebur” value [16, 30] was 0, the “Plant response rating, Cocklebur” value [16, 31] was 0 and the “Plant response rating, Pigweed” value [17, 30] was 100. For the same compound, the “Plant response rating, Pigweed” value [17, 31] was 100, the “Plant response rating, Barnyardgrass” value [18, 30] was 100 and the “Plant response rating, Barnyardgrass” value [18, 31] was 100. The “Plant response rating, Surinam grass” value [19, 30] was 100, the “Plant response rating, Surinam grass” value [19, 31] was 90 and the “Plant response rating, Foxtail, Giant” value [20, 30] was 100. For the same compound, the “Plant response rating, Foxtail, Giant” value [20, 31] was 100, the “Plant response rating, Lambsquarters” value [21, 30] was 100 and the “Plant response rating, Lambsquarters” value [21, 31] was 100. For the same compound, the “Plant response rating, Morningglory” value [22, 30] was 0, the “Plant response rating, Morningglory” value [22, 31] was 0 and the “Plant response rating, Rice” value [23, 30] was 100. For the same compound, the “Plant response rating, Rice” value [23, 31] was 100, the “Plant response rating, Velvetleaf” value [24, 30] was 0 and the “Plant response rating, Velvetleaf” value [24, 31] was 0. For the same compound, the “Plant response rating, Corn” value [25, 30] was 90 and the “Plant response rating, Corn” value [25, 31] was 20.
`CCC(CC)c1ccn(C2OCN(c3cccc(OC(F)F)c3)C2=O)n1` (centres unmarked) [Compound 131] was tested, and the “Plant response rating, Crabgrass” value [1] was 0, the “Plant response rating, Cocklebur” value [2, 26] was 30 and the “Plant response rating, Cocklebur” value [2, 27] was 70. For the same compound, the “Plant response rating, Wheat” value [3] was 0, the “Plant response rating, Blackgrass” value [4, 26] was 0 and the “Plant response rating, Blackgrass” value [4, 27] was 0. The “Plant response rating, Pigweed” value [5] was 80, the “Plant response rating, Barnyardgrass” value [6, 26] was 80 and the “Plant response rating, Barnyardgrass” value [6, 27] was 100. The “Plant response rating, Surinam grass” value [7, 26] was 0, the “Plant response rating, Surinam grass” value [7, 27] was 30 and the “Plant response rating, Foxtail, Giant” value [8] was 20. The “Plant response rating, Lambsquarters” value [9] was 90, the “Plant response rating, Wild Oat” value [10] was 20 and the “Plant response rating, Morningglory” value [11] was 20. For the same compound, the “Plant response rating, Velvetleaf” value [12] was 0, the “Plant response rating, Corn” value [13, 26] was 0 and the “Plant response rating, Corn” value [13, 27] was 20. For the same compound, the “Plant response rating, Lambsquarters” value [14, 26] was 100, the “Plant response rating, Lambsquarters” value [14, 28] was 100 and the “Plant response rating (0 to 100), Lambsquarters” value ([14]; preemergence) was 100. The “Plant response rating, Lambsquarters” value [14, 29] was 100, the “Plant response rating, Crabgrass” value [15, 30] was 100 and the “Plant response rating, Crabgrass” value [15, 31] was 100. For the same compound, the “Plant response rating, Cocklebur” value [16, 30] was 30, the “Plant response rating, Cocklebur” value [16, 31] was 0 and the “Plant response rating, Pigweed” value [17, 30] was 100. For the same compound, the “Plant response rating, Pigweed” value [17, 31] was 100, the “Plant response rating, Barnyardgrass” value [18, 30] was 100 and the “Plant response rating, Barnyardgrass” value [18, 31] was 100. The “Plant response rating, Surinam grass” value [19, 30] was 100, the “Plant response rating, Surinam grass” value [19, 31] was 100 and the “Plant response rating, Foxtail, Giant” value [20, 30] was 100. For the same compound, the “Plant response rating, Foxtail, Giant” value [20, 31] was 100, the “Plant response rating, Lambsquarters” value [21, 30] was 100 and the “Plant response rating, Lambsquarters” value [21, 31] was 100. For the same compound, the “Plant response rating, Morningglory” value [22, 30] was 90, the “Plant response rating, Morningglory” value [22, 31] was 0 and the “Plant response rating, Rice” value [23, 30] was 100. The “Plant response rating, Rice” value [23, 31] was 70, the “Plant response rating, Velvetleaf” value [24, 30] was 40 and the “Plant response rating, Velvetleaf” value [24, 31] was 0. For the same compound, the “Plant response rating, Corn” value [25, 30] was 50 and the “Plant response rating, Corn” value [25, 31] was 40.
With `CC(C)(C)c1ccn(C2OCN(c3cccc(OC(F)F)c3)C2=O)n1` (centres unmarked) [Compound 133] the “Plant response rating, Crabgrass” value [1] was 40, the “Plant response rating, Cocklebur” value [2, 26] was 10 and the “Plant response rating, Cocklebur” value [2, 27] was 30. For the same compound, the “Plant response rating, Wheat” value [3] was 0, the “Plant response rating, Blackgrass” value [4, 26] was 0 and the “Plant response rating, Blackgrass” value [4, 27] was 0. For the same compound, the “Plant response rating, Pigweed” value [5] was 80, the “Plant response rating, Barnyardgrass” value [6, 26] was 80 and the “Plant response rating, Barnyardgrass” value [6, 27] was 100. The “Plant response rating, Surinam grass” value [7, 26] was 0, the “Plant response rating, Surinam grass” value [7, 27] was 40 and the “Plant response rating, Foxtail, Giant” value [8] was 0. For the same compound, the “Plant response rating, Lambsquarters” value [9] was 100, the “Plant response rating, Wild Oat” value [10] was 0 and the “Plant response rating, Morningglory” value [11] was 0. For the same compound, the “Plant response rating, Velvetleaf” value [12] was 0, the “Plant response rating, Corn” value [13, 26] was 0 and the “Plant response rating, Corn” value [13, 27] was 0. For the same compound, the “Plant response rating, Lambsquarters” value [14, 26] was 100, the “Plant response rating, Lambsquarters” value [14, 28] was 100 and the “Plant response rating (0 to 100), Lambsquarters” value ([14]; preemergence) was 100. The “Plant response rating, Lambsquarters” value [14, 29] was 100, the “Plant response rating, Crabgrass” value [15, 30] was 100 and the “Plant response rating, Crabgrass” value [15, 31] was 100. For the same compound, the “Plant response rating, Cocklebur” value [16, 30] was 0, the “Plant response rating, Cocklebur” value [16, 31] was 0 and the “Plant response rating, Pigweed” value [17, 30] was 100. The “Plant response rating, Pigweed” value [17, 31] was 100, the “Plant response rating, Barnyardgrass” value [18, 30] was 100 and the “Plant response rating, Barnyardgrass” value [18, 31] was 100. For the same compound, the “Plant response rating, Surinam grass” value [19, 30] was 100, the “Plant response rating, Surinam grass” value [19, 31] was 100 and the “Plant response rating, Foxtail, Giant” value [20, 30] was 100. For the same compound, the “Plant response rating, Foxtail, Giant” value [20, 31] was 100, the “Plant response rating, Lambsquarters” value [21, 30] was 100 and the “Plant response rating, Lambsquarters” value [21, 31] was 100. The “Plant response rating, Morningglory” value [22, 30] was 0, the “Plant response rating, Morningglory” value [22, 31] was 0 and the “Plant response rating, Rice” value [23, 30] was 100. For the same compound, the “Plant response rating, Rice” value [23, 31] was 90, the “Plant response rating, Velvetleaf” value [24, 31] was 0 and the “Plant response rating, Corn” value [25, 30] was 90. For the same compound, the “Plant response rating, Corn” value [25, 31] was 0.
